Test system: A2185 and A2352 cells
Test: Viability assay (methylene blue), two BRAF melanoma cells
Type: cell-based
Settings: for viability at 10 µM / cell viability (percentage of DMSO control): active below 40%, moderate below 80%, not active above 80%; for viability at 10 µM: read-out: cell viability (percentage of DMSO control); for activity in SAR summary of FIGS. 10A-10C (cell viability): comparison with Compound Z2 or named analog
Experimental: FIGS. 10A, 10B and 10C present data from screening the 20 analogs of Compound Z2 (“C-compounds”) showing three particularly active anti-proliferative compounds. […] A2185 and A2352 cells were grown in 1% FCS containing DMSO (0.1%), EPE peptide, Compound Z56, Compound Z2 or C-compounds (10 μM), for 72 hours. Compounds were categorized according to activity: (1) active, below 40%; (2) moderate activity, below 80%; (3) not active, above 80%. […] A2185 and A2352 cells were grown in 1% FCS containing DMSO (0.1%), EPE peptide (10 μM), compounds Z56, Z2 or selected C-compounds (3 μM), for 72 hours. Empty squares/circles represent individual data points of proliferation. Full squares/circles indicate average proliferation of 2 independent experiments in triplicate±SE. Bold horizontal line defines arbitrary activity threshold of activity below 40%. FIG. 10C presents dose response curves of active C-compounds compounds. A2185 and A2352 were grown in 1% FCS media containing DMSO (0.1%), EPE peptide, Z56, Z2 (10 μM) or compounds C17, C22 and C23 (0.1-10 μM), for 72 hours. […] Cell viability was measured by staining with methylene blue. Data presented as percentage of DMSO control. Bar graphs represent average of 2 independent experiments done in triplicates ±SE.
FIG. 13 presents a graph showing the effect of analogs of Compound C17 (“D-compounds”) on cell viability at a concentration of 10 μM. A2185 and A2352 cells were grown in 1% FCS media containing DMSO (0.1%) EPE peptide (10 μM), Compounds Z56, Z2, C17 (10 μM) as controls, and D-Compounds (10 μM), for 72 hours. Viable cells were measured by staining with methylene blue. Bar graphs represent average of 2 independent experiments done in triplicates. Data presented as percentage of DMSO proliferation ±standard error.
FIG. 14 presents a graph showing the effect of analogs of Compound C17 (“D-compounds”) on cell viability at a concentration of 1 μM. A2185 and A2352 cells were grown in 1% FCS media containing DMSO (0.1%), EPE peptide (10 μM), Compounds Z56, Z2 and C17 (1 and 10 μM) as controls, and D-compounds (1 μM), for 72 hours. Viable cells were measured by staining with methylene blue. Bar graphs represent average of 2 independent experiments done in triplicates. Data presented as percentage of DMSO proliferation ±standard error.
Cells were seeded at low confluence into 24, 48 or 96-well plates in complete medium. After 24 hours, medium was replaced by 1% FCS (fetal calf serum) containing appropriate treatments. Fresh medium containing the same agents was replaced every day. After 72 or 96 hours of treatment, cells were fixed with 4% formaldehyde overnight at 23° C., washed once with 0.1 M borate buffer (pH 8.5) for 10 minutes, and stained with of 1% methylene blue in 0.1 M borate buffer (pH 8.5) for 30 minutes. Excess stain was washed out with distilled water. Color was extracted by adding 0.1 M HCl (3 hours, 23° C.), and absorbance measured at 595 nm in an ELISA reader. For time course experiments, attached cells were fixed and measured at 0, 24, 48, 72 and 96 hours. For dose-response experiments, cells were treated with indicated concentrations of reagent, fixed and stained after 72 hours as above.
The ability of the selected compounds to reduce cell viability of two BRAF melanoma cells (A2185 and A2352) was evaluated. Initially, all compounds were assayed at a relatively high concentration of 10 μM.

SMILES	anti-viability activity (10 μM, 72 hours, 1% FCS)	viability at 10 µM (10 μM, 72 hours, 1% FCS) [%]	cell viability (percentage of DMSO control) (10 μM, 72 hours, 1% FCS)	activity in SAR summary of FIGS. 10A-10C (cell viability)
O=S1(=O)C=CC2ON=C(c3cccnc3)C21 (stereo not drawn) [Compound D13]	higher activity than did Compound D7	–	–	–
O=C(CCc1ccccc1)OC1C=CS(=O)(=O)C1 (stereo not drawn) [Compound C3]	–	< 80	–	–
O=S1(=O)CCC(Oc2ccccc2)C1 (stereo not drawn) [Compound C5]	–	< 80	–	–
CS(=O)(=O)CCOC(=O)c1cccc(Br)c1 [Compound C19]	–	–	did not exhibit significant activity	inactive
O=S1(=O)C=CC2ON=C(c3cc(Cl)cc(Cl)c3)C21 (stereo not drawn) [Compound C6]	–	–	did not exhibit significant activity	inactive
Cc1ccc(C(=O)OC2CCS(=O)(=O)C2)cc1 (stereo not drawn) [Compound C11]	–	–	did not exhibit significant activity	inactive
O=C(OC1CCCS(=O)(=O)C1)c1ccccc1F (stereo not drawn) [Compound C31]	–	–	did not exhibit significant activity	inactive
CC(C)OC(=O)c1ccc(NC(=O)CC2C=CS(=O)(=O)C2)cc1 (stereo not drawn) [Compound C14]	–	–	did not exhibit significant activity	lower activity (relative to Compound Z2)
O=C(NC1C=CS(=O)(=O)C1)c1ccccc1 (stereo not drawn) [Compound C2]	–	< 80	–	less active
O=C(OC1CCS(=O)(=O)C1)c1ccnc(OCc2ccccc2)c1 (stereo not drawn) [Compound C16]	–	–	did not exhibit significant activity	–
O=S1(=O)C=CC(O)C1 (stereo not drawn) [Compound C4]	–	–	did not exhibit significant activity	–
Cc1ccccc1OC1CCS(=O)(=O)C1 (stereo not drawn) [Compound C20]	–	–	did not exhibit significant activity	lower activity (relative to Compound Z2)
O=S1(=O)CCC(OCc2ccccc2)C1 (stereo not drawn) [Compound C8]	–	–	did not exhibit significant activity	less active
O=C(Nc1ccccc1)OC1C=CS(=O)(=O)C1 (stereo not drawn) [Compound C12]	–	–	did not exhibit significant activity	less active
O=C(OC1CCCS(=O)(=O)C1)c1ccc(F)cc1 (stereo not drawn) [Compound C15]	–	–	did not exhibit significant activity	inactive
Cc1ccc(OC2CCS(=O)(=O)C2)cc1 (stereo not drawn) [Compound C21]	–	–	did not exhibit significant activity	lower activity (relative to Compound Z2)
Cn1ccc2c(C(=O)OC3CCS(=O)(=O)C3)cccc21 (stereo not drawn) [Compound C32]	–	–	did not exhibit significant activity	–
CCOC(=O)c1ccc(NC2C=CS(=O)(=O)C2)cc1 (stereo not drawn) [Compound C1]	–	< 40	–	lower activity (relative to Compound Z2)

From patent US12286439B2, “Inhibitors of ERK nuclear translocation” (Yeda Research and Development Co. Ltd., priority 2018, dated 2025)
